Experiment: Production of plasmalogen in suis plsA-transformed E. coli (phospholipid by HPLC-ELSD, aldehyde after acid hydrolysis)
Conditions: in aerobically grown E. coli
Protocol: After thawing the bacterial cells, the total weight of the cells was measured. After 1 mL of water was added to and mixed with the bacterial cells, 3.75 mL of chloroform/methanol (1:2, v/v) was added thereto, and the resulting mixture was mixed. The mixture was subjected to sonication for 10 minutes, and then left to stand at room temperature for 30 minutes. After adding 1.25 mL chloroform to the mixture, 1.25 mL water was added thereto. After performing centrifugation, the chloroform layer was transferred to a glass tube, and the remaining aqueous layer was subjected to re-extraction with 2 mL of chloroform. The resulting combined chloroform layer was dried under nitrogen gas, and resuspended in hexane/isopropanol (3:2, v/v) to a bacterial cell concentration of 120 mg/mL, followed by filtration through a 0.45-μm filter. After injecting 10 μL of the bacterial cell suspension into high-performance liquid chromatography (HPLC), detection was performed by an evaporative light-scattering detector (ELSD).
Lipid standard solutions with different concentrations were also detected by HPLC-ELSD. A calibration curve was prepared based on the peak area at each concentration, and the amount of phospholipids was calculated from the area ratio of the peak corresponding to phospholipids obtained from the E. coli with a retention time of 10 to 20 minutes. […]

In the case of “suis PlsA protein: PlsA protein of 1639 amino acids of SEQ ID NO:2, from B. longum suis subspecies”, the plasmalogen synthesis activity is reported as “shown to have a plasmalogen synthesis activity”.

— patent US20260055381A1, “PROTEIN, POLYNUCLEOTIDE, EXPRESSION VECTOR, TRANSFORMANT, PLASMALOGEN-CONTAINING COMPOSITION, AND METHOD FOR PRODUCING PLASMALOGEN” (INSTITUTE OF RHEOLOGICAL FUNCTION OF FOOD CO., LTD., priority 2022, published 2026)
